Measurements as given in patent US20160274123A1, “One-Photon and/or Two-Photon Fluorescent Probe for Sensing Hydrogen Sulfide, Imaging Method of Hydrogen Sulfide Using Same, and Manufacturing Method Thereof” (POSTECH ACADEMY-INDUSTRY FOUNDATION, priority 2013, published 2016).
Entries after “also recorded” stand apart in the source; their conditions may differ.

Key:
[1] = Fluorescence change under hydrogen sulfide and biological sulfide conditions (selectivity); settings: Compound 10 μM; Na2S 100 μM, GSH 10 mM, Cys 200 μM, Hcy 50 μM; pH 7.4 HEPES buffer; excitation 375 nm, emission 510 nm
Description: To confirm the hydrogen sulfide selectivity of Compound 2 under hydrogen sulfide and biological sulfide conditions, the fluorescence change of Compound 2 (10 μM) was observed under biological sulfide conditions (Na2S (100 μM), the same material as H2S), glutathione (GSH, 10 mM), cysteine (Cys, 200 μM), and homocysteine (Hcy, 50 μM) (using the same buffer as used in Example 1)). Here, an excitation wavelength was 375 nm, and a fluorescence emission wavelength was detected to be 510 nm.
That is, the fluorescence changes of Compounds 2, 3 and 4 (10 μM) were observed under the biological sulfide conditions (Na2S (100 μM, the same as H2S), glutathione (GSH, 10 mM), cysteine (Cys, 200 μM), homocysteine (Hcy, 50 μM)), a buffer used in the experiment was the same as used in Example 1, an excitation wavelength was 375 nm, and a fluorescence emission wavelength was detected to be 510 nm.

[2] = Fluorescence change of the probe on reaction with hydrogen sulfide in buffer; settings: Compound 10 μM
Description: A mechanism of a fluorescence turn-on phenomenon according to a reaction between Compound 2 and hydrogen sulfide is shown in FIG. 1a, an α-β unsaturated carbonyl group of Compound 2 reacted with hydrogen sulfide to induce a ring-shape in a chemical reaction.
Therefore, to observe the fluorescence change of Compound 2 due to hydrogen sulfide, a fluorescence graph of Compound 2 was measured in a buffer (pH 7.4, 10 mM HEPES buffer). For fluorescence spectra analysis, a photon technical international fluorescence system manufactured by PTI was used, as a cell providing Compound 2 to each instrument, a standard quartz cell having a thickness of 1 cm was used. First, Compound 2 (10 μM) was treated with hydrogen sulfide at a concentration of 0 to 50 μM, and after 5 minutes, a fluorescence graph was checked.
To observe the fluorescence change of Compound 2 over time due to hydrogen sulfide, Compound 2 (10 μM) was treated with 100 μM of hydrogen sulfide (using the same buffer as used in Example 1), and a graph of fluorescence over time was analyzed. When an excitation wavelength was 375 nm, a fluorescence emission wavelength was detected to be 510 nm.
To observe the hydrogen sulfide sensitivity of Compound 2 based on fluorescence change, an amount of Na2S (the same as H2S) in Compound 2 (10 μM) was reduced. A buffer used in the experiment was the same as used in Example 1, 50 nM of Na2S was added, an excitation wavelength was 375 nm, and a fluorescence emission wavelength was detected to be 510 nm.
To observe fluorescence changes of Compound 2 due to hydrogen sulfide under various acidity (pH) conditions, the fluorescence changes were examined when Compound 2 (10 μM) bound to H2S under various acidity conditions (pH 5˜9). In other words, 100 μM of H2S reacted to Compound 2 at pH 5, 6, 7, 8, or 9, and then 5 minutes later, a fluorescence intensity was measured. Here, an excitation wavelength was 375 nm, and a fluorescence emission wavelength was detected to be 510 nm.

[3] = Fluorescence change on reaction with various types of biological substances; settings: Compound 10 μM; amino acids, lipoic acid, anions, H2O2 each 100 μM; about 30 minutes; pH 7.4 HEPES buffer
Description: To observe fluorescence changes according to reactions between various types of biological substances and Compound 2, Compound 2 (10 μM) was reacted with a biologically-active substance (an amino acid (Ala, Glu, Lys, or Met), lipoic acid, an anion (NO^2−, SO4^2−, S2O3^2−, SCN^−, or I^−), and active oxygen (H2O2). A buffer used in the experiment was the same as used in Example 1, and the concentration of each biologically-active substance was 100 μM. Each biologically-active substance was added, and after about 30 minutes, an excitation wavelength was 375 nm, and a fluorescence emission wavelength was detected to be 510 nm.

HeLa cells [4] = assay: Cell imaging using one-photon and two-photon fluorescence microscopes; assay type: cell-based, human; settings: probe 10 μM
Description: To observe a fluorescence change according to the treatment with Compound 2 through cell imaging using one-photon and two-photon fluorescence microscopes, Compound 2 (10 μM) was treated with human cervical carcinoma cells (HeLa cells). The HeLa cells were cultured in a Dulbecco's modified eagles medium (DMEM, Hyclone) containing 10% fetal bovine serum (Hyclone) and penicillin-streptomycin (Hyclone) with 5% carbon dioxide at an ambient temperature of 37° C. to a cell density of about 20,000 cells/cm^2, and used in the experiment. The used one-photon fluorescence microscope is an LSM710 confocal microscope manufactured by Carl Ziess, and the two-photon fluorescence microscope is a Chameleon Ultra model having a Ti-sapphire laser, which is manufactured by Coherent. A lens used in the two-photon fluorescence microscope is an XLUMPLFNM, NA 1.0 model manufactured by Olympus, and a wavelength and laser power of the two-photon fluorescence microscope are 880 nm and 15 mW, respectively. […]

[5] = test system: hydrogen sulfide (H2S) in each organ (the brain, kidney, liver, spleen or lung) of a mouse; assay: Mouse organ tissue imaging using two-photon fluorescence microscope; assay type: in vivo
Description: Tissue imaging per each organ of a Compound 2 treated mouse was performed using a two-photon fluorescence microscope. That is, the distribution of hydrogen sulfide (H2S) in each organ (the brain, kidney, liver, spleen or lung) of a mouse was confirmed using Compound 2. To this end, a set (1′) was prepared by injecting Compound 2 into the abdominal cavity of a live mouse and extracting an organ, and a set (2′) was prepared by extracting each organ of a mouse and immersing the organ in a solution of Compound 2. The mouse used in the experiment was a C57BL6 type (SAMTAKO Corp.), which is five weeks old. More particularly, for the set (1′), 20 μL of a 10 mM solution of Compound 2, which had been taken and diluted in 280 μL of a PBS (100 mM, pH 7.4) buffer, was injected into the abdominal cavity of a mouse twice a day for a total of 5 days, and then each organ was extracted. The extracted organ was frozen in dry ice for 5 minutes, crushed into smaller pieces with a hammer, and cut to a thickness of 16 μm using a section machine (Cryostat machine, Leica, CM3000 model). […] Subsequently, the resultant sample was washed three times with a PBS buffer, covered with a mount solution (Gel Mount, BIOMEDA), and then imaged using a two-photon fluorescence microscope, which is the same as used in Example 7. However, an excitation wavelength and laser power of the two-photon fluorescence microscope were 880 nm and 40 mW, respectively. Also, for the set (2′), first, each organ of a mouse was extracted and immersed in a solution (10 μM) of Compound 2 for 10 minutes, and then a sample prepared as described above was imaged by the same method used for the set (1′).

HeLa cells [6] = assay: Cytotoxicity experiment by MTT method; assay type: cell-based, human
Description: To confirm the cytotoxicity of Compound 2 according to the present invention, a cytotoxicity experiment in HeLa cells was performed by an MTT method. That is, the Hela cells prepared by the same method as used in Example 7 were treated with Compound 2 at each concentration (0˜100 μM). In addition, to confirm the cytotoxicity, 25 μL of 3-(4,5-dimethldiazol-2-yl)-2, 5-diphenyltetrazolium bromide (MTT) having a concentration of 5 mg/mL was added. The cells were cultured at 37° C. for about 2 hours, treated with 100 μL of a solubilizing solution (50% dimethylformamide, 20% SDS, pH 7.4), and cultured at 37° C. for 24 hours, and then the absorbance was measured at 570 nm.

[7] = 100 μM hydrogen sulfide, pH 7.4 10 mM HEPES buffer, excitation 375 nm, emission 510 nm

Row | SMILES | selectivity to hydrogen sulfide under biological sulfide conditions [1] | signal to noise ratio of fluorescence turn-on ([2]; 50 nM Na2S, about 5 minutes after addition, pH 7.4 HEPES buffer) | fluorescence change due to hydrogen sulfide under various acidity (pH) conditions ([2]; 100 μM H2S, pH 5, 6, 7, 8 or 9, 5 minutes) | time to approach the maximum fluorescence level [2, 7] | time to saturation of fluorescence emission [2, 7] | fluorescence change with increasing concentration of hydrogen sulfide ([2]; hydrogen sulfide 0 to 50 μM, after 5 minutes, pH 7.4 10 mM HEPES buffer, excitation 375 nm, emission 510 nm) | low concentration of Na2S (H2S) at which fluorescence can be observed (sensitivity) ([2]; pH 7.4 HEPES buffer, excitation 375 nm, emission 510 nm) | selective fluorescence turn-on versus various biologically-active substances [3] | permeation into cells (HeLa cells [4]) | fluorescence change in cells treated only with the probe (HeLa cells [4]; cultured 30 minutes, set (2)) | two-photon fluorescence signal in organs after abdominal injection ([5]; set (1′): C57BL6 mouse, injected into the abdominal cavity twice a day for 5 days, organs extracted) | permeation into organs after abdominal injection ([5]; set (1′): living C57BL6 mouse, abdominal injection) | two-photon fluorescence change in extracted organs immersed in probe solution ([5]; set (2′): extracted mouse organs immersed in 10 μM solution for 10 minutes) | cytotoxicity (HeLa cells [6]; 0˜100 μM) | cell viability (HeLa cells [6]; concentrations until 100 μM)
1 | O=Cc1ccccc1/C=C/C(=O)c1ccc2cc(NCCO)ccc2c1 [Compound 4, (E)-2-(3-(6-(2-hydroxyethylamino)naphthalene-2-yl)-3-oxoprop-1-enyl)benzaldehyde] | did not have selectivity to hydrogen sulfide |  |  |  |  |  |  |  |  |  |  |  |  |  | 
2 | COc1cc(C=O)c(/C=C/C(=O)c2ccc3cc(NCCO)ccc3c2)c(OC)c1 [Compound 2, (E)-2-(3-(6-(2-hydroxyethylamino)naphthalene-2-yl)-3-oxoprop-1-enyl)-3,5-dimethoxybenzaldehyde] | sufficient fluorescence turn-on phenomenon only in a reaction with Na2S; also recorded: high selectivity to hydrogen sulfide | ≥ 3 | the sharpest increase in fluorescence was shown at neutral pH | ≤ 5 min | about 10 minutes | fluorescence intensity was increased | 50 nM | only reacts with hydrogen sulfide (H2S) | easily permeates into cells | showed an increase in fluorescence | signals are increased in the brain, kidney, liver, spleen and lung | permeated throughout the organ, particularly, into the brain | strong fluorescence changes are shown in the brain, liver and lung | not toxic to the cells | ≥ 95%
3 | COc1cccc(C=O)c1/C=C/C(=O)c1ccc2cc(NCCO)ccc2c1 [Compound 3, (E)-2-(3-(6-(2-hydroxyethylamino)naphthalene-2-yl)-3-oxoprop-1-enyl)-3-methoxybenzaldehyde] | relatively lower selectivity to hydrogen sulfide than Compound 2 |  |  |  |  |  |  |  |  |  |  |  |  |  | 
